Reference: BigSolDB 2.1

N[C@@H](Cc1ccc([N+](=O)[O-])cc1[N+](=O)[O-])C(=O)O
solubility (mole fraction)
Settings	in 1,2-dichloroethane	in acetone	in ethanol	in ethyl acetate	in isopropanol	in methanol	in n-butanol	in n-propanol	in sec-butanol	in water
273.15 K	2.2e-09	1.58e-06	3.44e-05	–	1.51e-06	1.5e-05	3.84e-06	2.58e-06	6.49e-07	8.5e-08
278.15 K	–	1.64e-06	–	–	2.96e-06	4.12e-05	–	–	–	–
283.15 K	8.6e-09	1.72e-06	9.2e-05	–	5.45e-06	9.1e-05	3.91e-06	3.54e-06	6.79e-07	1.12e-06
288.15 K	–	1.91e-06	–	–	9.49e-06	0.000192	–	–	–	–
293.15 K	3.08e-08	2.15e-06	0.000195	–	1.56e-05	0.000365	3.99e-06	5.64e-06	6.92e-07	9.26e-06
298.15 K	–	2.56e-06	–	–	2.42e-05	0.000578	–	–	–	–
303.15 K	1.05e-07	3.06e-06	0.00035	9.1e-09	3.57e-05	0.000909	4.28e-06	1.01e-05	7.79e-07	5.12e-05
308.15 K	–	3.99e-06	–	–	5.03e-05	0.00123	–	–	–	–
313.15 K	3.27e-07	5.26e-06	0.00051	1.88e-07	6.78e-05	0.00155	5.01e-06	2.04e-05	9.45e-07	0.000189
318.15 K	–	7.14e-06	–	–	8.75e-05	0.00181	–	–	–	–
323.15 K	9.77e-07	1.01e-05	0.000671	1.88e-06	0.000109	0.00196	6.29e-06	4.55e-05	1.23e-06	0.000523
328.15 K	–	1.45e-05	–	–	0.00013	0.00197	–	–	–	–
333.15 K	2.69e-06	2.19e-05	0.000772	1.12e-05	0.00015	0.00198	8.34e-06	0.000113	1.71e-06	0.00107
338.15 K	–	–	–	–	0.000167	–	–	–	–	–
343.15 K	–	–	0.00079	3.58e-05	–	–	1.15e-05	0.000294	2.49e-06	0.00166
348.15 K	–	–	–	5.44e-05	–	–	–	–	–	–
353.15 K	–	–	0.000791	–	–	–	1.69e-05	0.000812	3.87e-06	0.00193
363.15 K	–	–	–	–	–	–	2.6e-05	0.00241	6.11e-06	0.00198
368.15 K	–	–	–	–	–	–	–	0.00424	–	0.00201
